These results are taken from patent US10806164B2 (priority 2016, dated 2020).

Marks after values point to notes of the source that are not given here.

For data set [1] the following is noted: rat, in vivo.
For data set [2] the following is noted: rat, in vivo. The source holds these as a separate data set.

On to Deoxynivalenol [DON], for which, in data set [1], the “Effect on consumption of food” value was “affected the consumption of food”, the “Food consumption Means ± standard error” value is recorded as 569 ± 19.1 ^b, the “Food consumption from 0 to 7 days” value is on record as 98 ± 4.75 ^a and the “Food consumption from 7 to 14 days” value is recorded as 109 ± 4.84 ^a. Further, in data set [1], the “Food consumption from 14 to 21 days” value was 109 ± 5.41 ^b, the “Food consumption from 21 to 28 days” value is 121 ± 4.83 ^b, the “Food consumption from 28 to 35 days” value is given as 132 ± 3.10 ^b and the “Food conversion Means ± standard error” value is given as 5.22 ± 0.195 ^b. In addition, in data set [1], the “Gain of weight from 0 to 7 days” value is 24 ± 2.45 ^b, the “Gain of weight from 7 to 14 days” value was 24 ± 3.04 ^a, the “Gain of weight from 14 to 21 days” value is listed as 21 ± 2.92 ^a and the “Gain of weight from 21 to 28 days” value is 13 ± 3.89 ^b. For the same substance, in data set [1], the “Gain of weight from 28 to 35 days” value is recorded as 27 ± 3.63 ^a and the “Weight gain Means ± standard error” value is listed as 109 ± 6.61 ^b g. Also, the “Consumption food Means ± Standard error” value in data set [2] is 511 ± 5.71 ^b.
